Reference: PubChem BioAssay (NCI)
Where “and” joins values, the source holds several entries; their conditions need not be identical. Equal entries are not always repeated.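 Assay format: 96-well plates, 48-hour exposure. At the GI50, growth is halved. TGI: total growth inhibition.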

How the values were obtained:
Test in all cases: NCI tumour cell line growth inhibition, 48 h
M19-MEL melanoma = tested on: M19-MEL melanoma
DMS 273 small cell lung = tested on: DMS 273 small cell lung
LXFL 529 NSCLC = tested on: LXFL 529 NSCLC
RXF-631 renal = tested on: RXF-631 renal
KM20L2 colon = tested on: KM20L2 colon
SNB-78 CNS = tested on: SNB-78 CNS
XF 498 CNS = tested on: XF 498 CNS
HOP-18 NSCLC = tested on: HOP-18 NSCLC
SN12K1 renal = tested on: SN12K1 renal
MDA-N = tested on: MDA-N
P388/ADR leukemia = tested on: P388/ADR leukemia

| Compound | TGI (M19-MEL melanoma) | TGI (DMS 273 small cell lung) | TGI (LXFL 529 NSCLC) [µM] | TGI (RXF-631 renal) [µM] | TGI (KM20L2 colon) | TGI (SNB-78 CNS) | TGI (XF 498 CNS) | TGI (HOP-18 NSCLC) | other results |
| --- | --- | --- | --- | --- | --- | --- | --- | --- | --- |
| COC(=O)[C@H]1C=C[C@@H](C)n2c(=O)c3cc4ccccc4cc3c(=O)n21 | > 100 µM | > 100 µM | > 100 | > 100 | > 100 µM | > 100 µM | > 100 µM |  |  |
| Cc1cc(C)nc(NS(=O)(=O)c2ccc(NC(=O)c3cccc4c(Nc5ccc(S(N)(=O)=O)cc5)c5ccccc5nc34)cc2)n1 | 46.5 µM | > 100 µM | > 100 | > 100 | > 100 µM | 52.3 µM | 88.2 µM | > 100 µM |  |
| Cc1ccc(NC(=O)CSc2nnc(-c3ccc(N=Cc4ccc(Cl)cc4)cc3)o2)cc1 | > 100 µM | > 100 µM | > 100 |  | > 100 µM | > 100 µM | > 100 µM | > 100 µM |  |
| COC1(OC)CC2C(=O)N(Cc3ccccc3)C1C=C2S(=O)(=O)c1ccccc1 (stereo unspecified) | 30.4 µM |  | 34.2 |  | 33.1 µM | 74.4 µM | 31.7 µM | 31.9 µM |  |
| C/C(CC(=O)Nc1cccc(Cl)c1C)=N\NC(=O)c1ccncc1 | > 100 µM | > 100 µM | > 100 |  | > 100 µM | > 100 µM | > 100 µM |  |  |
| Cc1nc([N+](=O)[O-])cn1CC(=N)N | > 100 µM | > 100 µM | > 100 | > 100 | > 100 µM |  |  |  |  |
| CC[C@H]1CN2CCc3cc(OC)c(OC)cc3[C@@H]2C[C@@H]1C[C@H]1NCCc2c1[nH]c1ccc(O)cc21 | 0.0461 µM and 0.076 µM and < 0.0112 µM | 0.084 µM and 0.024 µM |  |  | 0.0858 µM and 0.47 µM and 0.241 µM | 0.0828 µM and 0.0713 µM and 0.11 µM | 0.0586 µM and 0.268 µM | 0.711 µM and 0.0824 µM and 0.449 µM | TGI (SN12K1 renal): 2.64 µM; GI50 (MDA-N): 0.0234 µM; TGI (MDA-N): 0.0568 µM and 0.182 µM; GI50 (M19-MEL melanoma): 0.0164 µM and 0.0241 µM; GI50 (DMS 273 small cell lung): 0.0261 µM; TGI (P388/ADR leukemia): > 100 µM; GI50 (HOP-18 NSCLC): 0.188 µM and 0.0283 µM; GI50 (KM20L2 colon): 0.0317 µM and 0.0549 µM; GI50 (SNB-78 CNS): 0.0273 µM and 0.0257 µM; GI50 (XF 498 CNS): 0.0415 µM |
| CC1COC(C)(C)P(=O)(c2ccccc2)C1 (stereo unspecified) | > 100 µM | > 100 µM | > 100 |  | > 100 µM | > 100 µM | > 100 µM | > 100 µM |  |
| COc1cc(C=O)c(-c2cc(OC)c(OC)cc2C=O)cc1OC | > 100 µM | > 100 µM | > 100 |  | > 100 µM | > 100 µM |  | > 100 µM |  |
| CC(C)N(CCn1c2c3ccccc3ccc2c2oc(=O)c3ccccc3c21)C(C)C | > 100 µM |  | > 100 | > 100 | > 100 µM | > 100 µM | > 100 µM | > 86.6 µM |  |
| Cc1[nH]c(/C=C2\C(=O)Nc3ccccc32)c(C)c1CCC(=O)O |  |  |  |  |  |  |  |  | TGI (MDA-N): > 100 µM |
| COC(=O)/C=C1\CCC(C)O1 (stereo unspecified) | > 100 µM | > 100 µM | > 100 | > 100 | > 100 µM | > 100 µM | > 100 µM |  |  |
| N#CC(C(=O)C(=O)Nc1ccc(Cl)cc1)c1ccccc1 (stereo unspecified) | > 100 µM | > 100 µM | > 100 | > 100 | > 100 µM | > 100 µM |  | > 100 µM |  |
| S=c1[nH]c(=S)c2nnn(-c3ccccc3)c2[nH]1 | > 100 µM | > 100 µM | > 100 |  | > 100 µM |  | > 100 µM |  |  |
| COC(=O)/C=C/c1c(CC=C(C)C)ncn1C | > 100 µM | > 100 µM | > 100 | > 100 | > 65.8 µM | > 100 µM | > 100 µM | > 100 µM |  |
| CCCN1CN(C(C(=O)N[C@@H]2C(=O)N3C2SC(C)(C)C3C(=O)O)c2ccc(O)cc2)CSC1=S (stereo partly specified) | > 100 µM | > 100 µM | > 100 |  | > 100 µM |  | > 100 µM | > 100 µM |  |
| Cc1cccc(C)c1NC(=O)C(=O)C(C(=O)c1ccccc1-c1ccccc1)C1OC(=O)c2ccccc21 (stereo unspecified) | 34.7 µM |  | 27.5 | > 100 | 67.7 µM | > 100 µM | 30.9 µM |  |  |
| Cc1nc2sc3c(c2c(=O)[nH]1)CCCC3 |  |  |  |  |  |  |  |  | TGI (MDA-N): > 100 µM |
| CC(=O)Oc1ccccc1C(=O)Nc1ncc([N+](=O)[O-])s1 |  |  |  |  |  |  |  |  | TGI (MDA-N): > 90.1 µM |
| CN[C@@H](C)[C@@H](NC)c1ccccc1 | > 100 µM | > 100 µM | > 100 | > 100 |  | > 100 µM |  | > 100 µM |  |

| Compound | TGI (M19-MEL melanoma) | TGI (DMS 273 small cell lung) | TGI (LXFL 529 NSCLC) [µM] | TGI (RXF-631 renal) [µM] | TGI (KM20L2 colon) | TGI (SNB-78 CNS) | TGI (XF 498 CNS) | TGI (HOP-18 NSCLC) | other results |
| --- | --- | --- | --- | --- | --- | --- | --- | --- | --- |
| CC(C)C(=O)Nc1nc2c(ncn2C2OC(CO)C(O)C2O)c(=O)[nH]1 (stereo unspecified) | > 100 µM | > 100 µM | > 100 | > 100 | > 100 µM | > 100 µM | > 100 µM | > 100 µM |  |
| O=[N+]([O-])c1ccc(N2N=C(c3ccc(NCc4nc5ccccc5[nH]4)cc3)CC2c2ccco2)cc1 (stereo unspecified) | > 100 µM | 51.8 µM | 38.5 |  |  |  |  | > 100 µM |  |
| O=CN1CCN(CC(O)CN2CCCCC2)CC1 (stereo unspecified) |  |  |  |  |  |  |  |  | TGI (MDA-N): > 100 µM |
| OCc1ccn2c1[C@@H](O)CC2 |  |  |  |  |  |  |  |  | TGI (MDA-N): > 100 µM |
| CCOP(=O)(OCC)OC1C=CC2CCC1C2 (stereo unspecified) |  | > 100 µM | > 100 | > 100 | > 100 µM | > 100 µM | > 100 µM | > 100 µM |  |
| O=S(=O)(c1ccccc1)C1CN2OC1(S(=O)(=O)c1ccccc1)CC2c1ccc(Br)cc1 (stereo unspecified) | > 100 µM | > 100 µM |  | > 100 | > 100 µM |  | 57.5 µM |  |  |
| CCCO/S(=N\S(=O)(=O)c1ccccc1)c1ccccc1[N+](=O)[O-] (stereo unspecified) | > 100 µM | > 100 µM | > 100 | > 100 | > 100 µM | > 100 µM | > 100 µM |  |  |
| CCOc1ccncc1[N+](=O)[O-] |  |  |  |  |  |  |  |  | TGI (MDA-N): > 100 µM |
| Cc1ccc(S(=O)(=O)c2ccc(N)cc2)cc1 | > 100 µM | > 100 µM | > 100 | > 100 | > 100 µM | > 100 µM | > 100 µM |  |  |
| O=C(O)c1ccc(OCc2ccccc2)c(Cl)c1 |  |  |  |  |  |  |  |  | TGI (MDA-N): > 100 µM |
| O=Cc1ccc2c(c1-c1c(C=O)ccc3c1OCO3)OCO2 | > 100 µM | > 100 µM | > 100 |  | > 100 µM | > 100 µM |  | > 100 µM |  |
| O=P1(c2ccccc2)CCCCC1 |  | > 100 µM | > 100 |  | > 100 µM | > 100 µM |  | > 100 µM |  |
| c1ccc2c(c1)c1c(c3ccccc32)CN2CCCC2C1 (stereo unspecified) |  |  |  |  |  |  |  |  | TGI (MDA-N): 14.2 µM |
| CNS(=O)(=O)NNS(=O)(=O)c1ccc(Br)cc1 | > 100 µM | > 100 µM | > 100 | > 100 | > 100 µM | > 100 µM | > 100 µM | > 100 µM |  |
| Cc1cc(NS(=O)(=O)c2ccc(Nc3c4ccccc4nc4c(C(=O)N5CCN(CCO)CC5)ccc(Cl)c34)cc2)no1 | > 100 µM | > 100 µM |  | > 100 | > 100 µM |  | > 100 µM |  |  |
| Cc1ccc(C)c(N=C2NC(=O)C(CC(=O)Nc3ccc(Cl)cc3Cl)S2)c1 (stereo unspecified) | > 100 µM | > 100 µM | > 100 |  | > 100 µM |  | 90.5 µM | > 100 µM |  |
| CC(=O)O[C@H]1CCC2[C@@H]3CCC4Nc5[nH]ncc5C[C@]4(C)C3CC[C@@]21C (stereo partly specified) | > 100 µM | > 100 µM | > 100 | > 100 | > 100 µM |  | 87 µM | > 100 µM |  |
| [N-]=[N+]=Nc1cc(=O)n2c3c(cccc13)CCC2 |  |  |  |  |  |  |  |  | TGI (MDA-N): > 100 µM |
| CC(C)C(=O)NS(=O)(=O)c1ccccc1 | > 100 µM |  | > 100 | > 100 | > 100 µM | > 100 µM | > 100 µM | > 100 µM |  |
